Results on four compounds are retold here after PMC8468607 (International Journal of Molecular Sciences, 2021).

Data set [1] deals with Hep3B cells xenografted onto CAM. The data set is described as follows: Hep3B xenografted CAM tumor model. In kind it is in vivo, chick. The following applies: 30 and 150 pmol/CAM, 4 days of incubation. The procedure:
Fertilized chicken eggs were purchased from Byeolbichon Farm (Gyeongbuk, South Korea) and incubated at 37 °C with 55% relative humidity. On day 9 of egg incubation, a small hole was made in the shell over the air sac after the selection of bifurcated vessels. Another hole was made on the broadside using a needle by applying negative pressure to the wider part, creating false air sac. Using a grinding wheel (Dremel, Racine, WI, USA), a small window (1 cm^2) was created in the eggshell above the false air sac. […] The mixture was inoculated on the CAM (final drug doses = 30 and 150 pmol/CAM), and the anti-tumor activity of the drugs was compared at the same concentrations. After sealing the window in the eggshell, the eggs were then returned to the incubator. After 4 days of incubation, tumor tissues attached to CAM were resected from the embryo and harvested. The number of vessel branch points within the tumor region was counted and analyzed using ImageJ software. Chick embryo experiments were performed in accordance with the institutional guidelines of the Institute of Laboratory Animal Resources (1996) and Yeungnam University for the care and use of laboratory animals (2009). The experiment protocol was reviewed and approved by the Institutional Animal Care and Use Committee at the Yeungnam University.

Data set [2] can be described thus: Cytotoxicity assay (MTT), H6c7 normal pancreatic duct epithelial cells. The following applies: normal human pancreatic duct epithelial cells, mean ± S.E.M., read-out: IC50 against cell viability (cytotoxicity), H6c7. Type of data set: cell-based. On the procedure:
(§1) Human cancer cell lines derived from the liver (Hep3B, Huh7) and the lung (A549, H1299) were obtained from American Type Culture Collection (ATCC, Manassas, VA, USA). An H6c7 human normal pancreatic duct epithelial cell line was purchased from Kerafast (Boston, MA, USA). Hep3B, Huh7, and A549 cells were cultured in Dulbecco′s Modified Eagle′s Medium (DMEM) (Hyclone, Logan, UT, USA), and H1299 cells were cultured in an RPMI-1640 medium (Hyclone). The media were supplemented with 10% fetal bovine serum (FBS) (Gibco/ThermoFisher Scientific) and 1% penicillin/streptomycin (Gibco/ThermoFisher Scientific). In the case of H6c7, the cells were maintained in a keratinocyte serum-free medium supplemented with a recombinant […] (rEGF) and bovine pituitary extract (Gibco/ThermoFisher Scientific). All the cells were incubated at 37 °C under a 5% CO2 atmosphere.
The H6c7 cell line was seeded in a 96-well plate in a complete medium. After 24 h, the culture medium was changed into a keratinocyte serum-free medium. […] The optical density was measured at 540 nm using a Spectrostar Nano microplate reader (BMG LABTECH).

The test system of data set [3] is Hep3B cells. The data set is described as follows: Apoptosis by annexin V-FITC/PI FACS, Hep3B. Type of data set: cell-based. The following applies: Homo sapiens, 48 h, Q4 lower left, annexin V-FITC and PI negative, read-out: FACS quadrant Q4 viable cells, Hep3B. On the procedure: (§2) Then, the cells were stained with propidium iodide and Annexin V-FITC using a FITC Annexin V apoptosis detection kit (BD Biosciences, San Jose, CA, USA) as per the manufacturer’s instructions. Briefly, the vehicle- or the drug-treated cells (1 × 10^5) were washed with ice-cold PBS twice and suspended in 1× binding buffer (100 μL). Then, 5 μL of Annexin V-FITC and 5 µL of PI were added, gently vortexed, and incubated for 15 min at 25 °C in the dark. Thereafter, 400 µL of 1× binding buffer was added and analyzed by flow cytometry (FACSVerse Cytometer, BD Biosciences).

Data set [4] has as its system A549 cells. The data set can be described thus: Apoptosis by annexin V-FITC/PI FACS, A549. Type of data set: cell-based. To be noted: Homo sapiens, 48 h, Q4 lower left, annexin V-FITC and PI negative, read-out: FACS quadrant Q4 viable cells, A549. The procedure:
as §2

For data set [5], the system named is several cancer cell lines. The arrangement: method as in PMID 27145715. To be noted: cited from earlier work.
Data set [6] deals with normal cell lines. Further details: method as in PMID 27145715. The following applies: cited from earlier work.
Data set [7] relates to Huh7 cells. The data set can be described thus: Proliferation assay (MTT), Huh7. In kind it is cell-based. To be noted: Homo sapiens, Huh-7, HCC cell line, 48 h, mean ± S.E.M., read-out: IC50 against cell proliferation, Huh7.
Source text: as §1, with “Hep3B, Huh7, and A549 cells were cultured in Dulbecco′s Modified Eagle′s Medium (DMEM) (Hyclone, Logan, UT, USA), and H1299 cells were cultured in an RPMI-1640 medium (Hyclone).” left out, “Scientific).” for “Scientific). All the cells were incubated at 37 °C under a 5% CO2 atmosphere.”
(§3) HCC (Hep3B, Huh7) and NSCLC (A549, H1299) cell lines were seeded in a 96-well plate at a density of 2.5 × 10^4 cells/mL in complete media and allowed to adhere for 24 h. […] Then, the media were removed, and 200 µL of dimethyl sulfoxide (DMSO) (Duksan, Ansan, South Korea) was added to solubilize the formazan crystal. After a 30 min incubation, the absorbance was measured at 540 nm using a microplate reader (BMG LABTECH, Ortenberg, Germany).

In data set [8] the test system is Hep3B cells. The data set can be described thus: Proliferation assay (MTT), Hep3B. In kind it is cell-based. The following applies: Homo sapiens, HCC cell line, 48 h, mean ± S.E.M., read-out: IC50 against cell proliferation, Hep3B.
Source text: as §1, with “Hep3B, Huh7, and A549 cells were cultured in Dulbecco′s Modified Eagle′s Medium (DMEM) (Hyclone, Logan, UT, USA), and H1299 cells were cultured in an RPMI-1640 medium (Hyclone).” left out, “Scientific).” for “Scientific). All the cells were incubated at 37 °C under a 5% CO2 atmosphere.”
as §3

For data set [9], the system named is A549 cells. The data set is described as follows: Proliferation assay (MTT), A549. To be noted: Homo sapiens, NSCLC cell line, 48 h, mean ± S.E.M., read-out: IC50 against cell proliferation, A549. In kind it is cell-based.
Source text: as §1, with “Hep3B, Huh7, and A549 cells were cultured in Dulbecco′s Modified Eagle′s Medium (DMEM) (Hyclone, Logan, UT, USA), and H1299 cells were cultured in an RPMI-1640 medium (Hyclone).” left out, “Scientific).” for “Scientific). All the cells were incubated at 37 °C under a 5% CO2 atmosphere.”
as §3

Data set [10] addresses T1, human c-Met kinase (Homo sapiens, UniProt P08581).
T1 construct: purchased Reaction Biology Corporation (Malvern, PA, USA), contract assay service
The data set can be described thus: c-Met kinase assay (Kinase HotSpot, Reaction Biology). Type of data set: biochemical. The following applies: for c-Met inhibition at fixed concentration / inhibition at 1 µM: 1 μM compound; for c-Met inhibition at fixed concentration: 1 µM; for inhibition at 1 µM: read-out: c-Met inhibition at fixed concentration; for IC50: three independent experiments, ATP 10 μM, read-out: IC50 against c-Met kinase. The procedure:
Briefly, human c-Met kinase (5–10 mU) and peptide substrate ([…], 20 µM) were prepared in a reaction buffer with a final volume of 25 μL. The compounds were delivered into the reaction, followed ~20 min. later by the addition of a mixture of ATP and [γ-33P-ATP] (specific activity approx. 500 cpm/pmol, concentration as required) to a final concentration of 10 μM. […] Then, the reaction was spotted onto a P30 filtermat, and unbound phosphate was removed by washing 3 times for 5 min in 75 mM phosphoric acid and once in methanol prior to drying and scintillation counting. […] IC50 values and curve fits were obtained using GraphPad Prism 5 software.

In data set [11] the test system is H1299 cells. The data set can be described thus: Proliferation assay (MTT), H1299. In kind it is cell-based. To be noted: Homo sapiens, NCI-H1299, NSCLC cell line, 48 h, mean ± S.E.M., read-out: IC50 against cell proliferation, H1299.
Source text: as §1, with “Hep3B, Huh7, and A549 cells were cultured in Dulbecco′s Modified Eagle′s Medium (DMEM) (Hyclone, Logan, UT, USA), and H1299 cells were cultured in an RPMI-1640 medium (Hyclone).” left out, “Scientific).” for “Scientific). All the cells were incubated at 37 °C under a 5% CO2 atmosphere.”
as §3

Data set [12] deals with c-MET. The data set is described as follows: Immunoblotting of c-MET expression and phosphorylation in HCC and NSCLC cell lines. In kind it is cell-based, human. The following applies: 10 μM, 24 and 48 h; Hep3B, Huh7, A549, H1299 cells. On the technique in general: Immunoblotting shows a protein as a band on a membrane.
Description: The cells (3.5 × 10^5) were seeded into a 60 mm dish and allowed to attach for 12 h. […] Cell lysates were collected in a radioimmune precipitation assay (RIPA) buffer containing a protease and phosphatase inhibitor cocktail (Thermo Fisher Scientific). Cell extracts were centrifuged at 17,000× g for 15 min, and the protein levels in collected supernatants were measured using a BCA protein assay reagent (Pierce; Rockford, IL, USA). The proteins were separated by SDS-PAGE and transferred at 200 mA to Hybond ECL nitrocellulose membranes (Amersham Life Science, Buckinghamshire, UK) for 1 h. Non-specific binding was blocked using 5% bovine serum albumin (BSA) in Tris-buffered saline (TBS)-Tween 20 (TBS-T) for 1 h. […] The membranes were then washed, incubated with ECL (Pierce, Appleton, WI, USA) detection reagent, and exposed under a luminescent image analyzer, LAS-4000mini. β-Actin was used as the loading control.

Each structure is given as a SMILES string. Bounds are passed on as bounds.

For orientation: melting point means the temperature, or range, at which the solid turns liquid.

T1 sequence (P08581 25-1390): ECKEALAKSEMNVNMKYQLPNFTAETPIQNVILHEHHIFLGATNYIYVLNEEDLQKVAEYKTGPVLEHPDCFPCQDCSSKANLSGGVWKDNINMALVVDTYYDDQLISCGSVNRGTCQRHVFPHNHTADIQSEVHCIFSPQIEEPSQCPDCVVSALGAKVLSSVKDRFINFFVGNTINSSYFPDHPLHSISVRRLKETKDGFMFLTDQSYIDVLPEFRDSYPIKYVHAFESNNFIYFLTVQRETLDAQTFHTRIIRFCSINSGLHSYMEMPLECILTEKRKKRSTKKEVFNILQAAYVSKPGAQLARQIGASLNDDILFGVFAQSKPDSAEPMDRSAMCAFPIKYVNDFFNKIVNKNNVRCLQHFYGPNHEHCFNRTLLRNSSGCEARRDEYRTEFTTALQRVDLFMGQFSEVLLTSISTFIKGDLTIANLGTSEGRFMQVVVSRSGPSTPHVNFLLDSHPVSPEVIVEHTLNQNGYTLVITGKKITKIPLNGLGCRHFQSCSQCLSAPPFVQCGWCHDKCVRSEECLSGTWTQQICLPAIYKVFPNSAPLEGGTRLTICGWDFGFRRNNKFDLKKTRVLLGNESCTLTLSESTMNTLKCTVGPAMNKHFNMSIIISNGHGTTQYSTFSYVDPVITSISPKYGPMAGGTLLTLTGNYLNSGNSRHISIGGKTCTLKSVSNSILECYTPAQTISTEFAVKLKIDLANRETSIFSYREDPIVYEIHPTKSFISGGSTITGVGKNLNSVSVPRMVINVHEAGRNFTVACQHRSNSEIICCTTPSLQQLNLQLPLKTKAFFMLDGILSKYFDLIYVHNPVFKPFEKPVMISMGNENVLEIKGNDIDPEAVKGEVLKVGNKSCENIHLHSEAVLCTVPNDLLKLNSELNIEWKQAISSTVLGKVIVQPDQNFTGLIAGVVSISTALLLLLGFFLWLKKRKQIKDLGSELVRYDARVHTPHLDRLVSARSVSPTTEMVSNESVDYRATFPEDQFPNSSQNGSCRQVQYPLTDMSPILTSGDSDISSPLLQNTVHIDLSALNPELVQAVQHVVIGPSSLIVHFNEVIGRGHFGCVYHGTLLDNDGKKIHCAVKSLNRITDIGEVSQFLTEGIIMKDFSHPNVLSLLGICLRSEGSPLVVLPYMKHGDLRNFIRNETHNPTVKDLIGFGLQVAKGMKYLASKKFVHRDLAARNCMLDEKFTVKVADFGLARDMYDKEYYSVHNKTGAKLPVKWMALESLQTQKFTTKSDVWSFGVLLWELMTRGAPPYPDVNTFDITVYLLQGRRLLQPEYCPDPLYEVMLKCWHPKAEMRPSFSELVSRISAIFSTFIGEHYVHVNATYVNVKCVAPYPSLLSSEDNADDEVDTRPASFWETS

As for `COc1cc2nccc(Oc3ccc(NC(=O)C4(C(=O)Nc5ccc(F)cc5)CC4)cc3)c2cc1OC` [Cabozantinib, cabozantinib, reference compound], the “Tumor-induced angiogenesis (number of new vessel branches)” value in [1] is reported as “significantly blocked”. Moreover, the IC50 at 48 h in data set [2] was found to be 39.4 ± 4.3 µM. The figures for the viability at 10 µM in data set [3] and in [4] were 79.5% and 81.3%, respectively.
As to `CCN(CC)CCNC(=O)c1c(C)[nH]c(/C=C2\C(=O)Nc3nc(C)c(O)c(C)c32)c1C` [Compound 1], in data set [5], the “Anti-cancer activity against several cancer cell lines compared to sunitinib” value is “comparable anti-cancer activity”. Also, the “Toxicity to normal cell lines compared to sunitinib” value in [6] is given as “less toxic to normal cell lines”.
For the compound `COc1cc2nccc(Oc3c(C)nc(NC(=O)C4(C(=O)Nc5ccc(F)cc5)CC4)c(C)c3C)c2cc1OC` [Compound 3], the melting point was 141 °C. In addition, the IC50 in [7] was above 100 µM. Also, the IC50 at 48 h in [2] is above 100 µM. In addition, the IC50 in data set [8] was above 100000 nM. Besides, the IC50 in data set [9] was above 100 µM. In addition, in data set [10], the “c-Met inhibition at fixed concentration” value came to 4%, the inhibition at 1 µM was 3.8% and the IC50 is above 1000 nM. Further, the IC50 in data set [11] is above 100 µM.
In the case of `COc1cc2nccc(Oc3ccc(NC(=O)C4(C(=O)Nc5ccc(F)cc5)CC4)nc3)c2cc1OC` [Compound 4], the melting point came out at 119 °C. Also, the IC50 in [7] was determined as 6.2 ± 1.8 µM. Further, in data set [1], the “Inhibitory effect on tumor weight” value is on record as “greater than that of cabozantinib” and the “Tumor-induced angiogenesis (number of new vessel branches)” value is reported as “significantly blocked”. In data set [2], the IC50 at 48 h was found to be 19.9 ± 1.8 µM. The viability at 10 µM in [3] was 35.3%. In addition, the IC50 in data set [8] worked out at 2100 ± 500 nM. Besides, the “Expression of c-MET and its phosphorylation” value in data set [12] is recorded as “significantly reduced”. For the same compound, the IC50 in [9] was determined as 12.4 ± 6.9 µM. Moreover, in data set [10], the “c-Met inhibition at fixed concentration” value turned out to be 94%, the inhibition at 1 µM amounted to 94.3% and the IC50 was 4.9 ± 2.3 nM. In data set [11], the IC50 turned out to be 8.9 ± 1.2 µM. In addition, in [4], the viability at 10 µM was determined as 61.8%.
